Article PMC3864932, “Identification of Crucial Amino Acids in Mouse Aldehyde Oxidase 3 That Determine Substrate Specificity” (PLoS ONE, 2013)
Like-named read-outs stand apart in the source and are kept apart here. Blank lines part the entries; values can stand above or below the molecule they belong to.

Experiments:
mAOX3-FeSI-mAOX1 [1] = system: T1, mAOX3-FeSI-mAOX1; details: read-out: mAOX3-FeSI-mAOX1; O2 (air-saturated buffer) as electron acceptor, 50 mM Tris-HCl pH 8.0, 1 mM EDTA, 37 °C; kcat corrected for Mo content
T1 construct: gene Aox3

mAOX3-FeSII-FeSI-mAOX1 [2] = system: T2, mAOX3-FeSII-FeSI-mAOX1; details: read-out: mAOX3-FeSII-FeSI-mAOX1; O2 (air-saturated buffer) as electron acceptor, 50 mM Tris-HCl pH 8.0, 1 mM EDTA, 37 °C; kcat corrected for Mo content
T2 construct: gene Aox3

mAOX3-FeSII-mAOX1 [3] = system: T3, mAOX3-FeSII-mAOX1; details: read-out: mAOX3-FeSII-mAOX1; O2 (air-saturated buffer) as electron acceptor, 50 mM Tris-HCl pH 8.0, 1 mM EDTA, 37 °C; kcat corrected for Mo content
T3 construct: gene Aox3

mAOX3-FeSII-mAOX1 [4] = system: T4, mAOX3-FeSII-mAOX1; experiment: steady-state kinetics, DCPIP reduction at […] nm; format: biochemical, Mus musculus; details: 100 µM DCPIP as electron acceptor, 50 mM Tris-HCl pH 8.0, 1 mM EDTA, 37 °C, kcat corrected for Mo content
T4 construct: gene Aox3; mAOX3 with M1-P80 replaced by M1-P76 of mAOX1 (FeSII domain); N-terminal His6-tag; E. coli; dimer

mAOX3-FeSI-mAOX1 [5] = system: T5, mAOX3-FeSI-mAOX1; experiment: steady-state kinetics, DCPIP reduction at […] nm; format: biochemical, Mus musculus; details: 100 µM DCPIP as electron acceptor, 50 mM Tris-HCl pH 8.0, 1 mM EDTA, 37 °C; kcat corrected for Mo content
T5 construct: gene Aox3; mAOX3 with A87-Q214 replaced by T83-Q213 of mAOX1 (FeSI domain); N-terminal His6-tag; E. coli; dimer

mAOX3-FeSII-FeSI-mAOX1 [6] = system: T6, mAOX3-FeSII-FeSI-mAOX1; experiment: steady-state kinetics, DCPIP reduction at […] nm; format: biochemical, Mus musculus; details: 100 µM DCPIP as electron acceptor, 50 mM Tris-HCl pH 8.0, 1 mM EDTA, 37 °C; kcat corrected for Mo content
T6 construct: gene Aox3; mAOX3 with M1-Q214 replaced by M1-Q213 of mAOX1 (both FeS domains); N-terminal His6-tag; E. coli; dimer

purified protein [7] = substrate: c1ccc2c(c1)cnc1ccccc12; experiment: purified protein; details: O2 (air-saturated buffer) as electron acceptor, 50 mM Tris-HCl pH 8.0, 1 mM EDTA, 37 °C, kcat corrected for Mo content
purified protein [8] = substrate: c1ccc2cnncc2c1; experiment: purified protein; format: biochemical, Mus musculus; details: 100 µM DCPIP as electron acceptor, 50 mM Tris-HCl pH 8.0, 1 mM EDTA, 37 °C, kcat corrected for Mo content
purified protein [9] = substrate: C[n+]1cccc(C(N)=O)c1; experiment: purified protein; format: biochemical, Mus musculus; details: 100 µM DCPIP as electron acceptor, 50 mM Tris-HCl pH 8.0, 1 mM EDTA, 37 °C, kcat corrected for Mo content

Km (mAOX3-FeSI-mAOX1 [1]): 35 ± 2 µM | Km (mAOX3-FeSII-FeSI-mAOX1 [2]): 28 ± 2 µM | Km (mAOX3-FeSII-mAOX1 [3]): 30 ± 5 µM
Molecule: c1ccc2c(c1)cnc1ccccc12 [phenanthridine]

Km (mAOX3-FeSII-mAOX1 [4]; read-out: mAOX3-WT ^4): 1.4 ± 0.2 µM | Km (mAOX3-FeSI-mAOX1 [5]): 1.2 ± 0.1 µM | Km (mAOX3-FeSII-FeSI-mAOX1 [6]): 1 ± 0.1 µM
Molecule: c1ccc2cnncc2c1 [phthalazine]

Molecule: O=Cc1ccccc1 [benzaldehyde]
Km (mAOX3-FeSII-mAOX1 [4]; read-out: mAOX3-FeSII-mAOX1): 1.6 ± 0.1 µM | Km (mAOX3-FeSI-mAOX1 [5]): 3.6 ± 0.3 µM | Km (mAOX3-FeSII-FeSI-mAOX1 [6]): 2.2 ± 0.1 µM

Molecule: O=c1[nH]cnc2[nH]ncc12 [allopurinol]
Km (mAOX3-FeSI-mAOX1 [5]): 1340 ± 43 µM

B1: mAOX3 (mouse aldehyde oxidase 3) (Mus musculus; P1015G) (protein)
chain: MSPSKESDELIFFVNGKKVTERNADPEVNLLFYLRKVIRLTGTKYGCGGGDCGACTVMISRYDPISKRISHFSATACLVPICSLHGAAVTTVEGIGSTKTRIHPVQERIAKGHGTQCGFCTPGMVMSIYTLLRNHPEPSTEQIMETLGGNLCRCTGYRPIVESAKSFCPSSTCCQMNGEGKCCLDEEKNEPERKNSVCTKLYEKKEFQPLDPTQELIFPPELMRMAEESQNTVLTFRGERTTWIAPGTLNDLLELKMKHPSAPLVIGNTYLGLHMKFTDVSYPIIISPARILELFVVTNTKQGLTLGAGLSLTQVKNVLSDVVSRLPKEKTQIYCALLKQLKTLAGQQIRNVASLGGHIISRLPTSDLNPILGIGNCILNVASTEGIQQIPLNDHFLAGVPDAILKPEQVLISVFVPRSSKWEFVSAFRQAPRQQNAFATVNAGMKVVFKEDTNTITDLGILYGGIGATVISADKSCRQLIGRCWDEEMLDDAGKMICEEVSLLMAAPGGMEEYRKTLAISFLFMFYLDVLKQLKTRDPHKYPDISQKLLHILEDFPLTMPYGMQSFQDVDFQQPLQDPIGRPIMHQSGIKHATGEAVFCDDMSVLPGELFLAVVTSSKSHAKIISLDASEALASLGVVDVVTARDVPGDNGREEESLYAQDEVICVGQIVCAVAADSYAHAQQAAKKVKIVYQDIEPMIVTVQDALQYESFIGPERKLEQGNVEEAFQCADQILEGEVHLGGQEHFYMETQSVRVVPKGEDKEMDIYVSSQDAAFTQEMVARTLGIPKNRINCHVKRVGGAFGGKASKPGLLASVAAVAAQKTGRPIRFILERRDDMLITGGRHPLLGKYKIGFMNNGKIKAADIQLYINGGCTPDDSELVIEYALLKLENAYKIPNLRVRGRVCKTNLPSNTAFRGFGFPQGAFVTETCMSAVAAKCRLPPEKVRELNMYRTIDRTIHNQEFDPTNLLQCWEACVENSSYYNRKKAVDEFNQQRFWKKRGIAIIPMKFSVGFGKTFYYQAAALVQIYTDGSVLVAHGGVELGQGINTKMIQVASRELKIPMSYIHLDEMSTVTVPNTVTTGASTGADVNGRAVQNACQILMKRLEPIIKQNPSGTWEEWVKEAFVQSISLSATGYFRGYQADMDWEKGEGDIFPYFVFGAACSEVEIDCLTGAHKNIRTDIVMDGSFSINPAVDIGQIEGAFVQGLGLYTLEELKYSPEGVLYTRGPHQYKIASVTDIPEEFHVSLLTPTPNPKAIYSSKGLGEAGTFLGCSVFFAIAAAVAAAREERGLSPIWAINSPATAEVIRMACEDQFTNLVPQTDSKCCKPWSIPVA
Km (purified protein [7]): 47 ± 2 µM | kcat (purified protein [7]): 8.83 s⁻¹ | kcat/Km (purified protein [7]): 189000 M⁻¹ s⁻¹

B2: mAOX3 (mouse aldehyde oxidase 3) (Mus musculus; F1014V) (protein)
chain: MSPSKESDELIFFVNGKKVTERNADPEVNLLFYLRKVIRLTGTKYGCGGGDCGACTVMISRYDPISKRISHFSATACLVPICSLHGAAVTTVEGIGSTKTRIHPVQERIAKGHGTQCGFCTPGMVMSIYTLLRNHPEPSTEQIMETLGGNLCRCTGYRPIVESAKSFCPSSTCCQMNGEGKCCLDEEKNEPERKNSVCTKLYEKKEFQPLDPTQELIFPPELMRMAEESQNTVLTFRGERTTWIAPGTLNDLLELKMKHPSAPLVIGNTYLGLHMKFTDVSYPIIISPARILELFVVTNTKQGLTLGAGLSLTQVKNVLSDVVSRLPKEKTQIYCALLKQLKTLAGQQIRNVASLGGHIISRLPTSDLNPILGIGNCILNVASTEGIQQIPLNDHFLAGVPDAILKPEQVLISVFVPRSSKWEFVSAFRQAPRQQNAFATVNAGMKVVFKEDTNTITDLGILYGGIGATVISADKSCRQLIGRCWDEEMLDDAGKMICEEVSLLMAAPGGMEEYRKTLAISFLFMFYLDVLKQLKTRDPHKYPDISQKLLHILEDFPLTMPYGMQSFQDVDFQQPLQDPIGRPIMHQSGIKHATGEAVFCDDMSVLPGELFLAVVTSSKSHAKIISLDASEALASLGVVDVVTARDVPGDNGREEESLYAQDEVICVGQIVCAVAADSYAHAQQAAKKVKIVYQDIEPMIVTVQDALQYESFIGPERKLEQGNVEEAFQCADQILEGEVHLGGQEHFYMETQSVRVVPKGEDKEMDIYVSSQDAAFTQEMVARTLGIPKNRINCHVKRVGGAFGGKASKPGLLASVAAVAAQKTGRPIRFILERRDDMLITGGRHPLLGKYKIGFMNNGKIKAADIQLYINGGCTPDDSELVIEYALLKLENAYKIPNLRVRGRVCKTNLPSNTAFRGFGFPQGAFVTETCMSAVAAKCRLPPEKVRELNMYRTIDRTIHNQEFDPTNLLQCWEACVENSSYYNRKKAVDEFNQQRFWKKRGIAIIPMKFSVGVPKTFYYQAAALVQIYTDGSVLVAHGGVELGQGINTKMIQVASRELKIPMSYIHLDEMSTVTVPNTVTTGASTGADVNGRAVQNACQILMKRLEPIIKQNPSGTWEEWVKEAFVQSISLSATGYFRGYQADMDWEKGEGDIFPYFVFGAACSEVEIDCLTGAHKNIRTDIVMDGSFSINPAVDIGQIEGAFVQGLGLYTLEELKYSPEGVLYTRGPHQYKIASVTDIPEEFHVSLLTPTPNPKAIYSSKGLGEAGTFLGCSVFFAIAAAVAAAREERGLSPIWAINSPATAEVIRMACEDQFTNLVPQTDSKCCKPWSIPVA
notes: N-terminal His6-tag, full length, plasmid pMMA1, expressed in E. coli; homodimer with Moco, two [2Fe-2S], FAD
Km (purified protein [8]): 12.5 ± 0.6 µM | kcat (purified protein [8]): 4.63 ± 0.233 s⁻¹ | kcat/Km (purified protein [8]): 372000 ± 25000 M⁻¹ s⁻¹

B3: mAOX3 (mouse aldehyde oxidase 3) (Mus musculus; P1015A) (protein)
chain: MSPSKESDELIFFVNGKKVTERNADPEVNLLFYLRKVIRLTGTKYGCGGGDCGACTVMISRYDPISKRISHFSATACLVPICSLHGAAVTTVEGIGSTKTRIHPVQERIAKGHGTQCGFCTPGMVMSIYTLLRNHPEPSTEQIMETLGGNLCRCTGYRPIVESAKSFCPSSTCCQMNGEGKCCLDEEKNEPERKNSVCTKLYEKKEFQPLDPTQELIFPPELMRMAEESQNTVLTFRGERTTWIAPGTLNDLLELKMKHPSAPLVIGNTYLGLHMKFTDVSYPIIISPARILELFVVTNTKQGLTLGAGLSLTQVKNVLSDVVSRLPKEKTQIYCALLKQLKTLAGQQIRNVASLGGHIISRLPTSDLNPILGIGNCILNVASTEGIQQIPLNDHFLAGVPDAILKPEQVLISVFVPRSSKWEFVSAFRQAPRQQNAFATVNAGMKVVFKEDTNTITDLGILYGGIGATVISADKSCRQLIGRCWDEEMLDDAGKMICEEVSLLMAAPGGMEEYRKTLAISFLFMFYLDVLKQLKTRDPHKYPDISQKLLHILEDFPLTMPYGMQSFQDVDFQQPLQDPIGRPIMHQSGIKHATGEAVFCDDMSVLPGELFLAVVTSSKSHAKIISLDASEALASLGVVDVVTARDVPGDNGREEESLYAQDEVICVGQIVCAVAADSYAHAQQAAKKVKIVYQDIEPMIVTVQDALQYESFIGPERKLEQGNVEEAFQCADQILEGEVHLGGQEHFYMETQSVRVVPKGEDKEMDIYVSSQDAAFTQEMVARTLGIPKNRINCHVKRVGGAFGGKASKPGLLASVAAVAAQKTGRPIRFILERRDDMLITGGRHPLLGKYKIGFMNNGKIKAADIQLYINGGCTPDDSELVIEYALLKLENAYKIPNLRVRGRVCKTNLPSNTAFRGFGFPQGAFVTETCMSAVAAKCRLPPEKVRELNMYRTIDRTIHNQEFDPTNLLQCWEACVENSSYYNRKKAVDEFNQQRFWKKRGIAIIPMKFSVGFAKTFYYQAAALVQIYTDGSVLVAHGGVELGQGINTKMIQVASRELKIPMSYIHLDEMSTVTVPNTVTTGASTGADVNGRAVQNACQILMKRLEPIIKQNPSGTWEEWVKEAFVQSISLSATGYFRGYQADMDWEKGEGDIFPYFVFGAACSEVEIDCLTGAHKNIRTDIVMDGSFSINPAVDIGQIEGAFVQGLGLYTLEELKYSPEGVLYTRGPHQYKIASVTDIPEEFHVSLLTPTPNPKAIYSSKGLGEAGTFLGCSVFFAIAAAVAAAREERGLSPIWAINSPATAEVIRMACEDQFTNLVPQTDSKCCKPWSIPVA
notes: as for B2
Km (purified protein [9]): 87 ± 3.4 µM | kcat (purified protein [9]): 1.08 ± 0.183 s⁻¹ | kcat/Km (purified protein [9]): 12400 ± 2200 M⁻¹ s⁻¹
